“Also recorded” adds a separate entry of the source.
Each substance was assayed on peptide-pulsed T2 cells (assay: IFN-gamma ELISPOT assay on CTLs induced with INHBB-derived peptides). Conditions: target cells pulsed with the peptide vs control not pulsed, after 3rd round of stimulation, day 21.
Assay type: cell-based, human
From the text: Monocyte-derived dendritic cells (DCs) were used as antigen-presenting cells (APCs) to induce cytotoxic T lymphocyte (CTL) responses against peptides presented on human leukocyte antigen (HLA). DCs were generated in vitro as described elsewhere (Nakahara S et al., Cancer Res 2003 Jul 15, 63(14): 4112-8). Specifically, peripheral blood mononuclear cells (PBMCs) isolated from a normal volunteer (HLA-A*0201 positive) by Ficoll-Plaque (Pharmacia) solution were separated by adherence to a plastic tissue culture dish (Becton Dickinson) so as to enrich them as the monocyte fraction. The monocyte-enriched population was cultured in the presence of 1000 U/ml of granulocyte-macrophage colony-stimulating factor (GM-CSF) (R&D System) and 1000 U/ml of interleukin (IL)-4 (R&D System) in AIM-V Medium (Invitrogen) containing 2% heat-inactivated autologous serum (AS). After 7 days of culture, the cytokine-induced DCs were pulsed with 20 mcg/ml of each of the synthesized peptides in the presence of 3 mcg/ml of beta2-microglobulin for 3 hr at 37 degrees C. in AIM-V Medium. The generated cells appeared to express DC-associated molecules, such as CD80, CD83, CD86 and HLA class II, on their cell surfaces (data not shown). These peptide-pulsed DCs were then inactivated by Mitomycin C (MMC) (30 mcg/ml for 30 min) and mixed at a 1:20 ratio with autologous CD8+ T cells, obtained by positive selection with CD8 Positive Isolation Kit (Dynal). These cultures were set up in 48-well plates (Corning); each well contained 1.5×10^4 peptide-pulsed DCs, 3×10^5 CD8+ T cells and 10 ng/ml of IL-7 (R&D System) in 0.5 ml of AIM-V/2% AS medium. Three days later, these cultures were supplemented with IL-2 (CHIRON) to a final concentration of 20 IU/ml. On day 7 and 14, the T cells were further stimulated with the autologous peptide-pulsed DCs. The DCs were prepared each time by the same way described above. CTL was tested against peptide-pulsed T2 cells after the 3rd round of peptide stimulation on day 21 (Tanaka H et al., Br J Cancer 2001 Jan. 5, 84(1): 94-9; Umano Y et al., Br J Cancer 2001 Apr. 20, 84(8): 1052-7; Uchida N et al., Clin Cancer Res 2004 Dec. 15, 10(24): 8577-86; Suda T et al., Cancer Sci 2006 May, 97(5): 411-9; Watanabe T et al., Cancer Sci 2005 Aug, 96(8): 498-506).
Specifically, peptide-pulsed T2 (1×10^4/well) was prepared as stimulator cells. Cultured cells in 48 wells were used as responder cells. IFN-gamma ELISPOT assay and IFN-gamma ELISA assay were performed under manufacture procedure.

Row | Substance | IFN-gamma production of peptide-induced CTLs (specific CTL activity)
1 | INHBB-A02-9-8: 9-mer HLA-A*0201 binding epitope peptide derived from INHBB (ALGAACLLL) | potent IFN-gamma production as compared to the control; also recorded: potent IFN-gamma production as compared with the control
2 | INHBB-A02-9-139: 9-mer HLA-A*0201 binding epitope peptide derived from INHBB (RVSEIISFA) | potent IFN-gamma production as compared to the control; also recorded: potent IFN-gamma production as compared with the control
3 | INHBB-A02-9-174: 9-mer HLA-A*0201 binding epitope peptide derived from INHBB (VQASLWLYL) | potent IFN-gamma production as compared to the control; also recorded: potent IFN-gamma production as compared with the control
4 | INHBB-A02-9-213: 9-mer HLA-A*0201 binding epitope peptide derived from INHBB (NMVEKRVDL) | potent IFN-gamma production as compared to the control; also recorded: potent IFN-gamma production as compared with the control
5 | INHBB-A02-9-250: 9-mer HLA-A*0201 binding epitope peptide derived from INHBB (VQCDSCQEL) | potent IFN-gamma production as compared to the control; also recorded: potent IFN-gamma production as compared with the control
6 | INHBB-A02-9-257: 9-mer HLA-A*0201 binding epitope peptide derived from INHBB (ELAVVPVFV) | potent IFN-gamma production as compared to the control; also recorded: potent IFN-gamma production as compared with the control
7 | INHBB-A02-9-313: 9-mer HLA-A*0201 binding epitope peptide derived from INHBB (RLIGWNDWI) | potent IFN-gamma production as compared to the control; also recorded: potent IFN-gamma production as compared with the control
8 | INHBB-A02-10-85: 10-mer HLA-A*0201 binding epitope peptide derived from INHBB (RLQMRGRPNI) | potent IFN-gamma production as compared to the control; also recorded: potent IFN-gamma production as compared with the control
9 | INHBB-A02-10-162: 10-mer HLA-A*0201 binding epitope peptide derived from INHBB (FISNEGNQNL) | potent IFN-gamma production as compared to the control; also recorded: potent IFN-gamma production as compared with the control
10 | INHBB-A02-10-173: 10-mer HLA-A*0201 binding epitope peptide derived from INHBB (VVQASLWLYL) | potent IFN-gamma production as compared to the control; also recorded: potent IFN-gamma production as compared with the control
11 | INHBB-A02-10-179: 10-mer HLA-A*0201 binding epitope peptide derived from INHBB (WLYLKLLPYV) | potent IFN-gamma production as compared to the control; also recorded: potent IFN-gamma production as compared with the control
12 | INHBB-A02-10-237: 10-mer HLA-A*0201 binding epitope peptide derived from INHBB (ALFERGERRL) | potent IFN-gamma production as compared to the control; also recorded: potent IFN-gamma production as compared with the control
13 | INHBB-A02-10-256: 10-mer HLA-A*0201 binding epitope peptide derived from INHBB (QELAVVPVFV) | potent IFN-gamma production as compared to the control; also recorded: potent IFN-gamma production as compared with the control
14 | INHBB-A02-10-313: 10-mer HLA-A*0201 binding epitope peptide derived from INHBB (RLIGWNDWII) | potent IFN-gamma production as compared to the control; also recorded: potent IFN-gamma production as compared with the control

What follows are substances tested on peptide-pulsed T2 cells (assay: IFN-gamma ELISA assay on expanded CTL line). Conditions: CTL line expanded from positive well #7, peptide-pulsed target vs target without peptide pulse.
Assay type: cell-based, human
From the text: Monocyte-derived dendritic cells (DCs) were used as antigen-presenting cells (APCs) to induce cytotoxic T lymphocyte (CTL) responses against peptides presented on human leukocyte antigen (HLA). DCs were generated in vitro as described elsewhere (Nakahara S et al., Cancer Res 2003 Jul 15, 63(14): 4112-8). Specifically, peripheral blood mononuclear cells (PBMCs) isolated from a normal volunteer (HLA-A*0201 positive) by Ficoll-Plaque (Pharmacia) solution were separated by adherence to a plastic tissue culture dish (Becton Dickinson) so as to enrich them as the monocyte fraction. The monocyte-enriched population was cultured in the presence of 1000 U/ml of granulocyte-macrophage colony-stimulating factor (GM-CSF) (R&D System) and 1000 U/ml of interleukin (IL)-4 (R&D System) in AIM-V Medium (Invitrogen) containing 2% heat-inactivated autologous serum (AS). After 7 days of culture, the cytokine-induced DCs were pulsed with 20 mcg/ml of each of the synthesized peptides in the presence of 3 mcg/ml of beta2-microglobulin for 3 hr at 37 degrees C. in AIM-V Medium. The generated cells appeared to express DC-associated molecules, such as CD80, CD83, CD86 and HLA class II, on their cell surfaces (data not shown). […]

Row | Substance | IFN-gamma production / specific CTL activity of established CTL line
15 | INHBB-A02-9-174: 9-mer HLA-A*0201 binding epitope peptide derived from INHBB (VQASLWLYL) | potent IFN-gamma production as compared with the control

Same assay, conditions: CTL line expanded from positive well #7, peptide-pulsed target vs target without peptide pulse, listed as SEQ ID NO: 2

Row | Substance | IFN-gamma production / specific CTL activity of established CTL line
16 | INHBB-A02-9-174: 9-mer HLA-A*0201 binding epitope peptide derived from INHBB (VQASLWLYL) | higher specific CTL activity against the peptide-pulsed target as compared to the activity against target without peptide pulse

Source: US20110280898A1, “INHBB EPITOPE PEPTIDES AND VACCINES CONTAINING THE SAME” (Oncotherapy Science, Inc., priority 2008, published 2011)
